How the values were obtained:
[1] = tested on: MPK3, MPK4 and MPK6 phosphorylation, WT seedlings; assay: MAPK assay (α-pERK1/2 immunoblot), WT; format: in vivo, Arabidopsis thaliana; settings: Supplementary Fig. 3i
Procedure: Ten-day-old seedlings grown vertically on ½MS plates were transferred to ddH2O overnight for recovery. Then, ddH2O was replaced by 100 nM peptides for the indicated time.

[2] = tested on: WRKY30, WRKY33 and CYP81F2 expression, mik2 seedlings; assay: RT-qPCR of defense genes, mik2 mutants; format: in vivo, Arabidopsis thaliana
MIK2-BAK1 association = assay: Co-immunoprecipitation MIK2-BAK1; format: cell-based, Arabidopsis thaliana; settings: co-IP
Procedure: For co-IP assays in protoplasts, protoplasts were co-transfected with pHBT-35S::MIK2-HA and pHBT-35S::BAK1-FALG or pHBT-35S::SERK4-FLAG at 50 μg DNA for 500 μL protoplasts at the density of 2 × 10^5/mL for each sample and were incubated for 12 h. After treatment with 1 µM SCOOP peptides for 15 min, samples were collected by centrifugation at 200 × g for 2 min and lysed in 300 μL IP buffer (20 mM Tris-HCl, pH 7.5, 100 mM NaCl, 1 mM EDTA, 2 mM DTT, 10% [v/v] Glycerol, 0.5% [v/v] Triton X-100 and protease inhibitor cocktail from Sigma) by vortexing. After centrifugation at 10,000 × g for 10 min at 4 °C, 30 μL of supernatant was collected for input controls. The remaining supernatant was pre-incubated with protein-G-agarose beads at 4 °C for 1 h with gentle shaking at […] on a rocker. IP was carried out with α-FLAG agarose for 3 h at 4 °C. Beads were collected by 500 × g centrifugation for 2 min and washed three times with washing buffer (20 mM Tris-HCl, pH 7.5, 100 mM NaCl, 1 mM EDTA, 0.1% [v/v] Triton X-100) and once with 50 mM Tris-HCl, pH 7.5. Immunoprecipitated proteins and input proteins were analyzed by immunoblotting with α-HA (1:3000; Roche, Cat # 12013819001) or α-FLAG antibodies (1:3000; Sigma-Aldrich, Cat # A8592).
For co-IP assays in transgenic seedlings, leaves of 4-week-old pMIK2::MIK2-GFP transgenic plants were hand-inoculated with 1 μM SCOOP10^B or SCOOP12 and were treated for 30 min, followed by total protein isolation with extraction buffer (50 mM Tris-HCl, pH 7.5, 150 mM NaCl, 1% [v/v] NP-40 and 1:200 protease inhibitor cocktail from Sigma). Co-IP was carried out the same as for co-IP with protoplasts except that GFP-Trap agarose beads (Chromotek) were used instead. Immunoprecipitated proteins and input proteins were analyzed by immunoblotting with α-GFP (1:3500; Roche, Cat # 11814460001) or α-BAK1 antibodies (1:2000)[64].

[3] = tested on: RLK7^ECD-MIK2^TK/rlk7 and RLK7/rlk7 transgenic seedlings; assay: Root growth assay, rlk7, RLK7/rlk7 and RLK7^ECD-MIK2^TK/rlk7 seedlings; format: in vivo, Arabidopsis thaliana
Excerpt: The BAK1 (AT4G33430), SERK4 (AT2G13790), BIK1 (AT2G39660), and MIK2 (AT4G08850) coding sequences (CDSs) were amplified by PCR from Col-0 cDNA using the primers containing BamHI at the 5′ end and StuI at the 3′ end. The PCR products were digested by BamHI and StuI, followed by ligation into the pHBT-FLAG or pHBT-HA vector to generate pHBT-35S::BAK1-FLAG, pHBT-35S::SERK4-FLAG, pHBT-35S::BIK1-HA, pHBT-35S::MIK2-HA, and pHBT-35S::MIK2-GFP constructs[24],[41],[62]. MIK2^ECD (residues 1–707) and BAK1^ECD (residues 1–220) were amplified by PCR from Col-0 cDNA and cloned into pFastBac-1 vector with a C-terminal 6× HIS tag[25],[62]. The fusion protein vectors carrying MIK2^ECD or BAK1^ECD were used for insect cell expression. To obtain the binary vector pCAMBIA1300-35S::RLK7, a 2907-bp RLK7 CDS was PCR-amplified from WT cDNA using gene-specific primers with KpnI and SalI at the 5′ and 3′ ends, respectively, followed by KpnI and SalI digestion and ligation into the pCAMBIA1300 vector. To generate the binary vector pCAMBIA1300 carrying the RLK7^ECD-MIK2^TK chimeric receptor gene, an 1824-bp fragment encoding RLK7^ECD was PCR-amplified from WT cDNA using a gene-specific forward primer with KpnI at the 5′ end and a gene-specific reverse primer with 8-bp overlapping sequence from the 5′ end of MIK2^TK, and a 1011-bp fragment encoding MIK2^TK using a gene-specific forward primer with 8-bp overlapping sequence from the 3′ end of RLK7 ^ECD and a gene-specific reverse primer with SalI at the 5′ end. RLK7^ECD was fused with MIK2^TK and inserted into the pUC19 vector using in-fusion recombinant enzymes (Clontech). […]
Cold stratified seeds were surface-sterilized with 70% (v/v) ethanol for 5 min and were sown on ½MS plates with or without peptides at indicated concentrations. Ten-day-old seedlings grown on plates vertically in a growth chamber were photographed, and the root lengths of seedlings were measured using Image J (http://rsb.info.nih.gov/ij/).

PNGDIFTGPSGSGHGGGR [SCOOP10B, synthesized SCOOP peptide corresponding to the SxS motif]
MAPK activation in shoots and roots [1]: triggered the MAPK activation in both shoots and roots
CYP81F2 expression (Fig. 3i) ([2]; mik2-1, repeat 1): 1.45
CYP81F2 expression (Fig. 3i) ([2]; mik2-1, repeat 2): 1.97
CYP81F2 expression (Fig. 3i) ([2]; mik2-1, repeat 3): 3.18
CYP81F2 expression (Fig. 3i) ([2]; mik2-1, repeat 4): 1.68
CYP81F2 expression (Fig. 3i) ([2]; mik2-2, repeat 1): 1.42
CYP81F2 expression (Fig. 3i) ([2]; mik2-2, repeat 2): 2.13
CYP81F2 expression (Fig. 3i) ([2]; mik2-2, repeat 3): 3.67
CYP81F2 expression (Fig. 3i) ([2]; mik2-2, repeat 4): 5.95
WRKY30, WRKY33 and CYP81F2 expression ([2]; mik2 mutants, 1 µM, 1 h, RT-qPCR): abolished in mik2 mutants
MIK2-BAK1 association (MIK2-BAK1 association; pMIK2::MIK2-GFP/mik2 leaves, 1 μM, 30 min): stimulated upon the treatment
MIK2-BAK1 association in protoplasts (MIK2-BAK1 association; protoplasts, MIK2-HA and BAK1-FLAG, 15 min): also observed in protoplasts

RLASGP(OH)SPRGRGH [PIP1, secreted peptide, ligand of RLK7]
root growth retardation ([3]; RLK7/rlk7 and RLK7^ECD-MIK2^TK/rlk7, 1 µM PIP1): restored the sensitivity to PIP1 treatment exhibiting root growth retardation
brown roots and darkened root-hypocotyl junctions ([3]; RLK7^ECD-MIK2^TK/rlk7): brown roots and darkened root-hypocotyl junctions
root growth retardation vs RLK7/rlk7 ([3]; RLK7^ECD-MIK2^TK/rlk7, 1 µM PIP1): more substantial root growth retardation

— PMC8448819, “The Arabidopsis MIK2 receptor elicits immunity by sensing a conserved signature from phytocytokines and microbes” (Nature Communications, 2021)
